Activity calls are given as the source filed them.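 The calls were made as follows: active = IC50 of 20 µM or lower; inactive = the rest.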
Test system: HL-1 cardiomyocytes, H2O2 injury, ATP luminescence, 2 h
Assay: H2O2-induced HL-1 cell death suppression – ATP luminescence, dose response (AID 602215);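 also: potency is for protection so actives raise ATP signal against peroxide damage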

Row | Structure (SMILES) | IC50
1 | COc1ccc2[nH]c(=O)c(CN(Cc3cccnc3)S(=O)(=O)c3ccccc3F)cc2c1 | > 79 µM (inactive)
2 | CC(C)(C)OC(=O)N1CCC(NC(=O)c2nc[nH]c2C(=O)NCC(=O)OCc2ccccc2)CC1 | > 79 µM (inactive)
3 | O=CNc1cc(-c2ccc(C(=O)NC3CC3)cc2)cn2c(-c3ccccc3)cnc12 | > 79 µM (inactive)
4 | Cc1ccccc1N(C(=O)c1snc(C(N)=O)c1N)C(C(=O)NCc1ccccc1)c1ccc(O)cc1 (stereo unspecified) | 15.9 µM
5 | CCOc1ccc(C(C(=O)NCC2CCCO2)N(C(=O)c2snc(C(N)=O)c2N)c2ccccc2F)cc1 (stereo unspecified) | 10.4 µM
6 | COc1cc(NC(=O)c2cc3ccccc3cc2OC)ccc1NC(=O)c1cccs1 | 4.22 µM
7 | O=C(CCCN1C(=O)c2cccc3cccc(c23)C1=O)N1CCN(c2ccccc2O)CC1 | 7.51 µM
8 | COc1cccc(/C=N/NC(=O)c2oc3nc(-c4ccccc4)cc(-c4ccco4)c3c2N)c1 | > 79 µM (inactive)
9 | COc1cc(C(=O)N/N=C/c2ccc(OC(=O)c3ccccc3)c(OC)c2)ccc1O | > 79 µM (inactive)
10 | N#C/C(=C\Nc1ccc2c(c1)OCCO2)c1nc2ccccc2[nH]1 | > 79 µM (inactive)
11 | CC(=O)Nc1ccc(C(=O)N/N=C/c2ccccc2OC(=O)c2ccc(Cl)cc2)cc1 | > 79 µM (inactive)
12 | COc1cc(C(=O)Nc2nc(-c3cccs3)cs2)cc(OC)c1OC | > 79 µM (inactive)
13 | COc1ccc(Nc2nc(C(=O)N3CCc4cc(OC)c(OC)cc4C3)cs2)cc1 | 8.5 µM
14 | CC(C)=NNc1cnnc2ccc([N+](=O)[O-])cc12 | > 79 µM (inactive)
15 | COc1ccc(NC(=O)c2cc(-c3ccccn3)nc3ccccc23)cc1S(=O)(=O)N(C)C | > 79 µM (inactive)
16 | N#Cc1c(-c2ccco2)cc(-c2cccnc2)nc1N | 41.2 µM (inactive)
17 | CC(=O)Nc1cccc(-c2cc(NC=O)c3ncc(-c4ccc(C(C)=O)cc4)n3c2)c1 | 6.11 µM
18 | COc1ccc(/C=N/NC(=O)c2ccc(COc3cccc4cccnc34)cc2)cc1OC | 6.02 µM

Row | Structure (SMILES) | IC50
19 | COc1cccc(-c2cnc3c(NC(C)=O)cc(-c4cccc(NS(C)(=O)=O)c4)cn23)c1 | 6.83 µM
20 | CC(=O)c1ccc(-c2cnc3c(NC=O)cc(-c4ccc(C(=O)NC5CC5)cc4)cn23)cc1 | > 79 µM (inactive)
21 | Cc1[nH]c2ccccc2c1/C=N/NC(=O)c1cc(-c2ccccc2)n[nH]1 | > 79 µM (inactive)
22 | COc1ccc(-n2cc(-c3ccccc3)c3c(N4CCOCC4)ncnc32)cc1 | > 79 µM (inactive)
23 | CC(C)(C)NC(=O)c1cc(NC(=O)c2cccs2)cc(NC(=O)c2cccs2)c1 | > 79 µM (inactive)
24 | COc1cccc(C(=O)Nc2c(C(N)=O)oc3ccccc23)c1 | 27.6 µM (inactive)
25 | CCn1nc(C(=O)Nc2nc(-c3ccccn3)cs2)c2ccccc2c1=O | 33 µM (inactive)
26 | COc1ccc(-c2cc(NC(C)=O)c3ncc(-c4cccc(C(C)=O)c4)n3c2)cc1OC | > 79 µM (inactive)
27 | CCOc1ncccc1C(=O)Nc1cccc(-c2nc3cccnc3s2)c1 | > 79 µM (inactive)
28 | Cc1nc(N2CCN(c3ccccn3)CC2)c2c(C)c(C(=O)Nc3ccc(F)cc3)sc2n1 | > 79 µM (inactive)
29 | COc1cc(/C=N/NC(=O)c2ccccc2)ccc1OS(=O)(=O)c1ccccc1 | > 79 µM (inactive)
30 | CC(C)OCCCNC(=O)CCC(=O)NNc1nc2ccccc2c2nc(-c3ccccc3)nn12 | > 79 µM (inactive)
31 | CC(=O)c1ccc(-c2cnc3c(NC=O)cc(-c4cccc(C(=O)N(C)C)c4)cn23)cc1 | 12 µM
32 | COc1cccc(-c2cnc3c(NC=O)cc(-c4cccc(NC(C)=O)c4)cn23)c1 | > 79 µM (inactive)
33 | Cc1cc(C)c(C)c(S(=O)(=O)N2CCN(C(=O)c3cc(=O)[nH]c4ccccc34)CC2)c1C | 18.9 µM
34 | C=CC[C@@H](CC(=O)NCCO)C(=O)NC[C@H](OC(=O)[C@@H](CC=C)Cc1ccc(F)cc1)c1ccccc1 | > 79 µM (inactive)
35 | CCN(CC(=O)Nc1ccc(OC)cc1)C(=O)c1cc(-c2cccs2)nn1-c1ccccc1 | > 79 µM (inactive)
36 | Brc1cc2c(cc1/C=N/Nc1nc(N3CCCC3)nc(N3CCOCC3)n1)OCO2 | 10.9 µM

From PubChem BioAssay AID602215 (Sanford-Burnham Center for Chemical Genomics, 2012)
